From PubChem BioAssay AID1963869 (Molecular Pharmacology Branch, DTP, NCI, 2024)

Test system: KRAS patient-derived spheroids with HUVEC/MSC, viability
Assay: Anticancer human tumor 323965-272-R-J2-PDC patient-derived pancreatic carcinoma cell line growth inhibition [KRAS2]
Details: for IC50: curve of first compound; for viability, T/C: stronger effect = lower value
Method in brief: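 Combination screen of spheroid viability in tumor-cell co-cultures with endothelial (HUVEC) and mesenchymal stem cell stroma. Each agent was tested in half-log dilutions, topping at clinical Cmax or at 10 microM without a known Cmax.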

[1] = second compound 0.1 µM, first compound 0.0316 µM
[2] = second compound 0.1 µM, first compound 0.1 µM
[3] = second compound 0.1 µM, first compound 0.316 µM
[4] = second compound 0.1 µM, first compound 1 µM
[5] = second compound 0.1 µM, first compound 3.16 µM
[6] = second compound 0.1 µM, first compound 10 µM
[7] = second compound 0.316 µM, first compound 0.0316 µM
[8] = second compound 0.316 µM, first compound 0.1 µM
[9] = second compound 0.316 µM, first compound 0.316 µM
[10] = second compound 0.316 µM, first compound 1 µM
[11] = second compound 0.316 µM, first compound 3.16 µM
[12] = second compound 0.316 µM, first compound 10 µM
[13] = second compound 1 µM, first compound 0.0316 µM
[14] = second compound 1 µM, first compound 0.1 µM
[15] = second compound 1 µM, first compound 0.316 µM
[16] = second compound 1 µM, first compound 1 µM
[17] = second compound 1 µM, first compound 3.16 µM
[18] = second compound 1 µM, first compound 10 µM
[19] = second compound 3.16 µM, first compound 0.0316 µM
[20] = second compound 3.16 µM, first compound 0.1 µM
[21] = second compound 3.16 µM, first compound 0.316 µM
[22] = second compound 3.16 µM, first compound 1 µM
[23] = second compound 3.16 µM, first compound 3.16 µM
[24] = second compound 3.16 µM, first compound 10 µM
[25] = second compound 10 µM, first compound 0.0316 µM
[26] = second compound 10 µM, first compound 0.1 µM
[27] = second compound 10 µM, first compound 0.316 µM
[28] = second compound 10 µM, first compound 1 µM
[29] = second compound 10 µM, first compound 3.16 µM
[30] = second compound 10 µM, first compound 10 µM
[31] = second compound 0.1 µM, first compound 0.01 µM
[32] = second compound 0.316 µM, first compound 0.01 µM
[33] = second compound 1 µM, first compound 0.01 µM
[34] = second compound 3.16 µM, first compound 0.01 µM
[35] = second compound 10 µM, first compound 0.01 µM
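Further: spheroids exposed to agents for 7 days.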
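Wherever viability, T/C is given: 100% = DMSO vehicle control viability.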

Row | SMILES | IC50 (second compound 0.1 µM) | IC50 (second compound 0.316 µM) | IC50 (second compound 1 µM) | IC50 (second compound 3.16 µM) | IC50 (second compound 10 µM) | viability, T/C [1] | viability, T/C [2] | viability, T/C [3] | viability, T/C [4] | viability, T/C [7] | viability, T/C [8] | viability, T/C [9] | viability, T/C [10] | viability, T/C [13] | viability, T/C [14] | viability, T/C [15] | viability, T/C [16] | viability, T/C [19] | viability, T/C [20] | viability, T/C [21] | other results
1 | CC(C)NCC(C(=O)N1CCN(c2ncnc3c2C(C)CC3O)CC1)c1ccc(Cl)cc1 (stereo not given) + CNCc1ccccc1-c1csc(C(C)Nc2nc(C)nc3cc(OC)c(OC)cc23)c1 | 1570 nM | 1060 nM | 1330 nM | 532 nM | < 31.6 nM | 90.9% | 85.4% | 70.6% | 55.8% | 94.2% | 85.2% | 72.9% | 48.1% | 94.9% | 91.8% | 79.9% | 54.4% | 88.3% | 73.2% | 58.5% | viability, T/C [5]: 41.7%; viability, T/C [6]: 36%; viability, T/C [11]: 41.4%; viability, T/C [12]: 33%; viability, T/C [17]: 36.7%; viability, T/C [18]: 32.9%; viability, T/C [22]: 43%; viability, T/C [23]: 21.5%; viability, T/C [24]: 18%; viability, T/C [25]: 0.27%; viability, T/C [26]: 0.28%; viability, T/C [27]: 0.23%; viability, T/C [28]: 0.59%; viability, T/C [29]: 0.71%; viability, T/C [30]: 0.19%
2 | CC1COCCN1c1cc(-c2ccnn2C)c2ccnc(-c3ccn[nH]3)c2n1 (stereo not given) + CNCc1ccccc1-c1csc(C(C)Nc2nc(C)nc3cc(OC)c(OC)cc23)c1 | 20.7 nM | 21.4 nM | 22.3 nM | 12.8 nM | < 10 nM | 37.6% | 22.5% | 20.1% | 18.2% | 35.8% | 20.4% | 19% | 16.1% | 34.3% | 17.9% | 17.2% | 14.9% | 24.2% | 5.14% | 4.3% | viability, T/C [31]: 71.4%; viability, T/C [5]: 17.9%; viability, T/C [32]: 77.8%; viability, T/C [11]: 17.1%; viability, T/C [33]: 85.8%; viability, T/C [17]: 16.1%; viability, T/C [34]: 57.1%; viability, T/C [22]: 7.85%; viability, T/C [23]: 8.8%; viability, T/C [35]: 0.18%; viability, T/C [25]: 0.13%; viability, T/C [26]: 0.13%; viability, T/C [27]: 0.12%; viability, T/C [28]: 0.25%; viability, T/C [29]: 0.19%
3 | CC1OCC2(CCN(c3cnc(Sc4ccnc(N)c4Cl)c(N)n3)CC2)C1N (stereo not given) + CNCc1ccccc1-c1csc(C(C)Nc2nc(C)nc3cc(OC)c(OC)cc23)c1 | 404 nM | 202 nM | 548 nM | 351 nM | < 31.6 nM | 77.4% | 65.6% | 53.4% | 38.6% | 82.1% | 55.4% | 44.1% | 41.6% | 101% | 71.9% | 60.5% | 40.7% | 83.5% | 65.8% | 51.3% | viability, T/C [5]: 28.7%; viability, T/C [6]: 17.8%; viability, T/C [11]: 27.9%; viability, T/C [12]: 25.9%; viability, T/C [17]: 35.1%; viability, T/C [18]: 33.4%; viability, T/C [22]: 40.8%; viability, T/C [23]: 27%; viability, T/C [24]: 25.5%; viability, T/C [25]: 0.33%; viability, T/C [26]: 0.17%; viability, T/C [27]: 0.15%; viability, T/C [28]: 0.14%; viability, T/C [29]: 0.13%; viability, T/C [30]: 0.18%
4 | CCN1CCN(Cc2ccc(Nc3ncc(F)c(-c4cc(F)c5nc(C)n(C(C)C)c5c4)n3)nc2)CC1 + CNCc1ccccc1-c1csc(C(C)Nc2nc(C)nc3cc(OC)c(OC)cc23)c1 | > 1000 nM | > 1000 nM | > 1000 nM | 127 nM | < 3.16 nM | 59.8% | 47% | 51.5% | 59.7% | 65.7% | 56% | 53% | 56% | 72.6% | 71.8% | 61.8% | 57.7% | 68.4% | 53.4% | 33% | viability, T/C (second compound 0.1 µM, first compound 0.00316 µM): 91.5%; viability, T/C [31]: 85.2%; viability, T/C (second compound 0.316 µM, first compound 0.00316 µM): 97.3%; viability, T/C [32]: 93.3%; viability, T/C (second compound 1 µM, first compound 0.00316 µM): 94.2%; viability, T/C [33]: 92.8%; viability, T/C (second compound 3.16 µM, first compound 0.00316 µM): 80%; viability, T/C [34]: 79.2%; viability, T/C [22]: 1.27%; viability, T/C (second compound 10 µM, first compound 0.00316 µM): 0.23%; viability, T/C [35]: 0.23%; viability, T/C [25]: 0.18%; viability, T/C [26]: 0.16%; viability, T/C [27]: 0.16%; viability, T/C [28]: 0.18%
5 | CCNC(=O)CC1N=C(c2ccc(Cl)cc2)c2cc(OC)ccc2-n2c(C)nnc21 (stereo not given) + CNCc1ccccc1-c1csc(C(C)Nc2nc(C)nc3cc(OC)c(OC)cc23)c1 | 370 nM | 332 nM | 466 nM | 436 nM | < 31.6 nM | 94.1% | 75.7% | 51.9% | 38.5% | 87.2% | 77.7% | 50.3% | 36.4% | 94.8% | 80.2% | 54.8% | 40.1% | 98.9% | 80.7% | 55.4% | viability, T/C [5]: 33.7%; viability, T/C [6]: 33.5%; viability, T/C [11]: 34.5%; viability, T/C [12]: 31.6%; viability, T/C [17]: 34.2%; viability, T/C [18]: 32.4%; viability, T/C [22]: 36.3%; viability, T/C [23]: 26.2%; viability, T/C [24]: 24.1%; viability, T/C [25]: 0.5%; viability, T/C [26]: 0.19%; viability, T/C [27]: 0.17%; viability, T/C [28]: 0.15%; viability, T/C [29]: 0.21%; viability, T/C [30]: 0.3%
6 | Cn1nccc1Nc1nccc(-c2cc3c(s2)C(C)(C)N(CCN2CCOCC2)C3=O)n1 + CNCc1ccccc1-c1csc(C(C)Nc2nc(C)nc3cc(OC)c(OC)cc23)c1 | 1050 nM | 1360 nM | 3970 nM | 1660 nM | < 31.6 nM | 98.5% | 84.4% | 64.6% | 51.3% | 86.9% | 79.3% | 71.9% | 52.2% | 95.5% | 89.4% | 72.8% | 67.3% | 92.6% | 78.5% | 70% | viability, T/C [5]: 41%; viability, T/C [6]: 37.2%; viability, T/C [11]: 41.7%; viability, T/C [12]: 38.1%; viability, T/C [17]: 48.1%; viability, T/C [18]: 45%; viability, T/C [22]: 54.9%; viability, T/C [23]: 43.2%; viability, T/C [24]: 30%; viability, T/C [25]: 0.23%; viability, T/C [26]: 0.22%; viability, T/C [27]: 0.19%; viability, T/C [28]: 0.17%; viability, T/C [29]: 0.17%; viability, T/C [30]: 0.19%
7 | CC(=O)OC12COC1CC(O)C1(C)C(=O)C(O)C3=C(C)C(OC(=O)C(O)C(NC(=O)OC(C)(C)C)c4ccccc4)CC(O)(C(OC(=O)c4ccccc4)C21)C3(C)C (stereo not given) + COc1cc2nc(C)nc(NC(C)c3cc(N)cc(C(F)(F)F)c3)c2cc1OC1CCOC1 | < 10 nM | < 10 nM | < 10 nM | < 10 nM | < 10 nM | 28.6% | 23.8% | 23.2% | 28.2% | 24.5% | 21.6% | 22.4% | 24.5% | 28% | 27.6% | 27.2% | 30.4% | 20.1% | 18.8% | 20.4% | viability, T/C [31]: 28.6%; viability, T/C [5]: 25.2%; viability, T/C [32]: 24.2%; viability, T/C [11]: 25.2%; viability, T/C [33]: 21.6%; viability, T/C [17]: 35.3%; viability, T/C [34]: 21.4%; viability, T/C [22]: 20.1%; viability, T/C [23]: 24.3%; viability, T/C [35]: 23.1%; viability, T/C [25]: 21.2%; viability, T/C [26]: 17.8%; viability, T/C [27]: 17.1%; viability, T/C [28]: 21.2%; viability, T/C [29]: 15.8%
